Consider five compounds from patent US5639902A, “(Cyclohexyl)alkene compounds” (Adir et Compagnie, priority 1993, dated 1997).

The test system of series [1] is swelling of the ear of a mouse. Kind of series: Topical inflammatory model (psoriasis), arachidonic acid ear swelling. The conditions noted are these: dose of 20 mg/ear, arachidonic acid 2 mg, 60 min. It is filed as in vivo. As to the method: STUDY OF THE ACTIVITY OF THE COMPOUNDS OF THE INVENTION WITH RESPECT TO A TOPICAL INFLAMMATORY MODEL (psoriasis)
The present test enables the anti-inflammatory activity of the compounds of the invention with respect to such dermal lesions to be tested.
(Current Test Protocols-Pharmacology Service-Panlabs-June 92).
Arachidonic acid (2 mg in 20 μl of an acetone/pyridine/water (7:2:1) mixture) is applied topically to the anterior and posterior surfaces of the right ear of a mouse 30 min after a similar application of the test compound or of the vehicle (20 μl). The swelling of the ear is measured by a Dyer type gauge after 60 min as an index of the inflammation.
The percentage inhibition is calculated according to the formula: Ic-lt/Ic×100, in which Ic and It represent the increase in thickness (in mm) of the ear in the control mouse and in the treated mouse, respectively.

Series [2] has as its system human PMN. Nature of the series: Inhibition of LTB4-induced chemotaxis of human PMN in vitro (BOYDEN-KELLER chambers). It is filed as cell-based. As to the method: STUDY OF THE ACTIVITY OF THE COMPOUNDS OF THE INVENTION WITH RESPECT TO THE CHEMOTAXIS OF HUMAN PMN IN VITRO
PMN incubated in HBSS without Ca^2+ or Mg^2+ are labeled with ^51 chromium (1 μL Ci/10^6 cells) for 1 hour at 37° C. and then washed twice with HBSS.
The PMN are then resuspended at a concentration of 10^7 cells/cm^3 in Hank's buffer with the addition of 1% bovine albumin. LTB4 and the compounds of the invention dissolved in Hank buffer are introduced into the lower part of BOYDEN-KELLER chambers, two cellulose nitrate filters (Millipore, 3 μm) are placed on each well and the upper part of the chambers is filled with the cell suspension (Methods Enzymol 1988, vol. 162, pp 59-64).
The chambers are incubated for 150 min at 37° C. under an atmosphere of 95% humidified air and 5% CO2.
The radioactivity of the lower filter is measured with a scintillation spectrometer (Beckman LS 3801).

For series [3], the system named is LTB4-induced contraction of parenchymatous strips of guinea pig lung. Kind of series: LTB4-induced contraction of isolated parenchymatous lung strips. As to conditions: contraction stimulated with 30 nM LTB4, compound added 2 min before; read-out: 50% inhibition of the contraction (IC50). Also noted: species or system DUNKIN HARTLEY guinea pig. As to the method: STUDY OF THE ACTIVITY OF THE COMPOUNDS OF THE INVENTION WITH RESPECT TO THE CONTRACTION OF PARENCHYMATOUS LUNG STRIPS
LTB4 has a contracting effect on isolated parenchymatous strips of guinea pig lung. The antagonist activity of the compounds of the invention with respect to this LTB4 -induced contraction is tested.
Parenchymatous strips of DUNKIN HARTLEY guinea pig lung are cut and placed in baths containing Tyrode's solution oxygenated with a stream of gas (95% O2 /5% CO2). The strips are connected to a polygraph (GOULD Statham) with an isometric tension of 400 mg. After 1 h of equilibrium, 1 μM mepyramine and 10 μM atroprine are added to the Tyrode's solution, and the compounds of the invention are tested for their antagonist activities. The contractile responses are recorded over 5 min. The antagonist activities of the compounds of the invention are tested by adding these compounds to the bath 2 min before stimulation of contraction with 30 nM LTB4.

Series [4] concerns the target T1, LTB4 receptors (Homo sapiens, UniProt Q15722).
T1 construct: Human PMN are isolated from heparinized venous blood of healthy donors; endogenous in cells; host or cells: human polymorphonuclear leukocytes (PMN) from venous blood of healthy donors
Kind of series: Study of binding to LTB4 (Leukotriene B4) receptors on human PMN, displacement of [^3 H]LTB4. The conditions noted are these: for pIC50: human PMN (10^6 cells), 1 nM [^3 H]LTB4, 20 min at 4° C., read-out: 50% inhibition (IC50) of the binding of [^3 H]LTB4. As for the experimental part:
Human PMN are isolated from heparinized venous blood of healthy donors by sedimentation on dextran T500. The supernatant is centrifuged on Ficoll Paque®, and the residual erythrocytes are removed by hypotonic lysis. The PMN are washed with Hank's isotonic saline solution (HBSS) free from Ca^2+ and Mg^2+.
[…] is verified by the trypan blue exclusion technique.
Study of binding to LTB4 receptors
Binding to PMN is carried out in HBSS free from Ca^2+ and Mg^2+ containing 5 mM HEPES buffer.
The PMN (10^6 cells) are incubated for 20 min at 4° C. with 1 nM [^3 H]LTB4 in the presence or absence of non-radioactive LTB4 or of the compounds of the invention at various concentrations.

Series [5] can be described thus: Stability of the solution of the salt. The conditions noted are these: sodium salt, aqueous solution. It is filed as physicochemical.
Series [6] can be described thus: Solubility of the salt in water. It is filed as physicochemical. The conditions noted are these: sodium salt.

pIC50: −log10 of the molar value.

The term pIC50 denotes the IC50 on a negative log10 scale, so that one unit is a factor of ten. One may read the solubility as how much of the substance goes into solution per volume.

T1 sequence (Q15722 whole entry): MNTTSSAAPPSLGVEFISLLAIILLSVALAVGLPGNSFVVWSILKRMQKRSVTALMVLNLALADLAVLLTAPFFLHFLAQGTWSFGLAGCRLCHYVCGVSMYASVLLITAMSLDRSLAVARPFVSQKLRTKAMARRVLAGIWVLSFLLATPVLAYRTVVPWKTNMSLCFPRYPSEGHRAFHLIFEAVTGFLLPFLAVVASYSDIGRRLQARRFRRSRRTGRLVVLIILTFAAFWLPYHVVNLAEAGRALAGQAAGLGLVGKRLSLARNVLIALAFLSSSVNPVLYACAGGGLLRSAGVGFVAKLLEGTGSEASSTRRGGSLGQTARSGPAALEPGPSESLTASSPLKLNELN

In the case of `O=C(O)C[C@]1(O)CCC[C@H](/C=C/C(O)CCCCc2ccccc2)C1` (relative stereo) [Example 7, (1S*,3S*)-1-HYDROXY-3-[(3R*S*,E)-3-HYDROXY-7-PHENYL-1-HEPTEN-1-YL]-1-CYCLOHEXANE-ACETIC ACID], the “decrease in the volume of the ear” value in series [1] stood at 30%. In series [2] (up to a concentration of 50 μM), the “inhibition of the action of LTB4 on cell migration (in words)” value is “total inhibition”. The pIC50 in series [3] is 7.40; in series [4] it was 6.70.
With `O=C(O)C[C@]1(O)CCC[C@H](/C=C/C(O)CCCCc2ccccc2)C1` (relative stereo) [Sodium (1S*,3S*)-1-hydroxy-3-[(3R*S*,E)-3-hydroxy-7-phenyl-1-hepten-1-yl]-1-cyclohexaneacetate], in series [5], the “Stability of the solution” value was “more than 18 months”. Further, the solubility in series [6] is 100 mg/mL.
For the compound `CN(C)C(=O)C[C@]1(O)CCC[C@H](/C=C/C(O)CCCCc2ccccc2)C1` (single isomer, unassigned) [Example 69, (1S*,3S*)-1-HYDROXY-3-[(3R*S*,E)-3-HYDROXY-7-PHENYL-1-HEPTEN-1-YL]CYCLOHEXANE-1-(N,N-DIMETHYLACETAMIDE)], the pIC50 in series [4] was 6.30.
Consider `CN(C)C(=O)C[C@@]1(O)CCC[C@H](/C=C/C(O)CCCCc2ccccc2)C1` (single isomer, unassigned) [Example 71, (1R*,3S*,E)-1-HYDROXY-3-[(3R*S*,E)-3-HYDROXY-7-PHENYL-1-HEPTEN-1-YL]CYCLOHEXANE-1-(N,N-DIMETHYLACETAMIDE)], for which the negative logarithm of the IC50 (pIC50) in series [4] is 5.70.
For the compound `CCCCC/C=C\C[C@@H](O)/C=C/C=C/C=C\[C@@H](O)CCCC(=O)O` [LTB4, Leukotriene B4, reference compound], the “effect on the spontaneous migration of human PMN (in words)” value in series [2] (LTB4 0.1 to 100 nM, BOYDEN-KELLER chambers) is listed as “causes an activation of the spontaneous migration”. In addition, the “displacement of [^3 H]LTB4 from its specific binding sites (in words)” value in series [4] (human PMN, [^3 H]LTB4 (1 nM), increasing doses of unlabeled LTB4) is on record as “dose-dependent displacement”.
